Experiment [1] concerns Rattus norvegicus. Kind of experiment: In vivo receptor occupancy at GABAA receptor in sc dosed rat brain. The format is functional.
The test system of experiment [2] is Homo sapiens. Kind of experiment: In vivo receptor occupancy GABAA receptor in human assessed as cerebellum concentration causing reduction in [11C]flumazenil receptor labeling at 20 mg by PET method relative to control. The format is functional.
Experiment [3] has as its system Homo sapiens. As to the kind of experiment: In vivo receptor occupancy GABAA receptor in human assessed as occipital cortex concentration causing reduction in [11C]flumazenil receptor labeling at 20 mg by PET method relative to control. In kind it is functional.
In experiment [4] the test system is Rattus norvegicus. As to the kind of experiment: In vivo receptor occupancy at GABAA receptor in po dosed Sprague-Dawley rat assessed as plasma concentration causing 50% reduction in [3H]-flumazenil receptor labeling after 0.5 hrs. In kind it is functional.
In experiment [5] the test system is Homo sapiens. As to the kind of experiment: In vivo receptor occupancy at GABAA receptor in human at 5 mg, po relative to control. In kind it is functional.
Experiment [6] addresses T1, Gamma-aminobutyric acid receptor subunit alpha-3 (Homo sapiens, UniProt P34903).
T1 sequence (P34903 whole entry): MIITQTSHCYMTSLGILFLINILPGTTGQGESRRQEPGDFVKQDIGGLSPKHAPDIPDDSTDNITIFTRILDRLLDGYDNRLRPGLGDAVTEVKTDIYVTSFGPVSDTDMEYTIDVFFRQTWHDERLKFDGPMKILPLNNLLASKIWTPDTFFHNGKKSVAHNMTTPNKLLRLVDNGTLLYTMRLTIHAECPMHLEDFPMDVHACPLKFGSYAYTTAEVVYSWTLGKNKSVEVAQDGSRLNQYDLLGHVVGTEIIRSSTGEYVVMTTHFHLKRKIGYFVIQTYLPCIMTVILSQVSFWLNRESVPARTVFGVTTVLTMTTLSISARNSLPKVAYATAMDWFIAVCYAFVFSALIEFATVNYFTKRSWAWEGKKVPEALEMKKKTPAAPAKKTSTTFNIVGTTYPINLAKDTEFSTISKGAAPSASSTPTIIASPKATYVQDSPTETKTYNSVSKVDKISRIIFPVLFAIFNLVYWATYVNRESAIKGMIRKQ
As to the kind of experiment: Binding affinity to GABA-A alpha3 (unknown origin).

Experiment [7] deals with T2, Gamma-aminobutyric acid receptor subunit alpha-2 (Homo sapiens, UniProt P47869).
T2 sequence (P47869 whole entry): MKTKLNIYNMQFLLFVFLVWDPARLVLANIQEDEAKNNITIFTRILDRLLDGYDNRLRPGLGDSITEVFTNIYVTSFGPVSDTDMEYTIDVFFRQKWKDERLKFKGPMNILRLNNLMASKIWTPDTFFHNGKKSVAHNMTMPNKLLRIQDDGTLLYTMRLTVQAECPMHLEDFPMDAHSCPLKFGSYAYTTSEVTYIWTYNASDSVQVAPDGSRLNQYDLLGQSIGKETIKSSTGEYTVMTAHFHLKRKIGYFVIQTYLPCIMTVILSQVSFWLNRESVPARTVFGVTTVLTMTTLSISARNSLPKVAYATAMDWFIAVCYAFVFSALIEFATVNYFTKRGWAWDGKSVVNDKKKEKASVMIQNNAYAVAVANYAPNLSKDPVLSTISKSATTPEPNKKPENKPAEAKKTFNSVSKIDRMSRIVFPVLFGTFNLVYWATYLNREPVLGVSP
Kind of experiment: Binding affinity to GABA-A alpha2 (unknown origin).

For another experiment, the system named is Rhesus monkey. As to the kind of experiment: In vivo receptor occupancy at GABAA receptor in iv dosed rhesus monkey assessed as plasma concentration causing 50% reduction in [11C]-flumazenil receptor labeling by PET method. In kind it is functional, Macaca mulatta.
Experiment [8] relates to Rattus norvegicus. Kind of experiment: In vivo receptor occupancy at GABAA receptor in po dosed Sprague-Dawley rat assessed as brain concentration causing 50% reduction in [3H]-flumazenil receptor labeling after 0.5 hrs. In kind it is functional.
Experiment [9] has as its target T3, Gamma-aminobutyric acid receptor subunit alpha-1 (Homo sapiens, UniProt P14867).
T3 sequence (P14867 whole entry): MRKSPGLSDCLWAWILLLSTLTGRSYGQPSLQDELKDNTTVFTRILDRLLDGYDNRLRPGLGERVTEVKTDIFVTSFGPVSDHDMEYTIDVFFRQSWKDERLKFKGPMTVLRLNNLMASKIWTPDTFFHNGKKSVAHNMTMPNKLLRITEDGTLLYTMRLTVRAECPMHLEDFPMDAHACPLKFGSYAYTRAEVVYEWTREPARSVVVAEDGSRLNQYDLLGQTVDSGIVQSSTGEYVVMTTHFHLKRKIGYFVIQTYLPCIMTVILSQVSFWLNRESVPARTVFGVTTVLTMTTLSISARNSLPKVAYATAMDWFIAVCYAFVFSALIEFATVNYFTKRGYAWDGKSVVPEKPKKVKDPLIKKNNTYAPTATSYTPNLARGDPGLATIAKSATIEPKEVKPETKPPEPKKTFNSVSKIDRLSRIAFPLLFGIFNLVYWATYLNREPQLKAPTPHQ
Kind of experiment: Binding affinity to GABA-A alpha1 (unknown origin).

The target of experiment [10] is T4, Gamma-aminobutyric acid receptor subunit alpha-1 (Homo sapiens) (UniProt P14867).
T4 sequence (whole entry): T3 sequence (P14867 whole entry)
Kind of experiment: Negative allosteric modulation of GABA-A alpha1 (unknown origin) assessed as reduction in DMCM induced current relative to DMCM.

Experiment [11] has as its system Homo sapiens. As to the kind of experiment: In vivo receptor occupancy at GABAA receptor in human assessed as brain concentration causing reduction in [11C]-flumazenil receptor labeling at 2 mg after 1 hr by PET relative to control. In kind it is functional.
The test system of the next experiment is Mus musculus. As to the kind of experiment: In vivo receptor occupancy at GABAA receptor in po dosed mouse assessed as brain concentration causing 50% reduction in [3H]-flumazenil receptor labeling. The format is functional.
Experiment [12] relates to Homo sapiens. Kind of experiment: In vivo receptor occupancy at GABAA receptor in po dosed human assessed as plasma concentration causing 50% reduction in [11C]-flumazenil receptor labeling. The format is functional.
In experiment [13] the test system is Rattus norvegicus. Kind of experiment: In vivo receptor occupancy at GABAA receptor in po dosed rat assessed as brain concentration causing 50% reduction in [3H]-flumazenil receptor labeling. In kind it is functional.
In experiment [14] the target is T5, Gamma-aminobutyric acid receptor subunit alpha-5 (Homo sapiens, UniProt P31644).
T5 sequence (P31644 whole entry): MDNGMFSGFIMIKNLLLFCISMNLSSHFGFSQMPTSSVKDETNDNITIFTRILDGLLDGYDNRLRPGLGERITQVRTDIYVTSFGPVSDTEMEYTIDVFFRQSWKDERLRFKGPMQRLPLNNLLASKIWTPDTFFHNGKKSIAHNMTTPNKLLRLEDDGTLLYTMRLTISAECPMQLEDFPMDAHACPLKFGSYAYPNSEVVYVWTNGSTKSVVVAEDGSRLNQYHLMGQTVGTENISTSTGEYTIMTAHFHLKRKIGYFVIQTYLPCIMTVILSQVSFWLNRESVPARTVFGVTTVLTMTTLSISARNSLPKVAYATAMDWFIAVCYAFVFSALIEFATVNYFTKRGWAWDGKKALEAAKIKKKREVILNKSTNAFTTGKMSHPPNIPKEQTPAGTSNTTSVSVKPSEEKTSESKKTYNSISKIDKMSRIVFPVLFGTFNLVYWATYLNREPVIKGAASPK
As to the kind of experiment: Binding affinity to GABA-A alpha5 (unknown origin).

Experiment [15] deals with T6, Gamma-aminobutyric acid receptor subunit alpha-5 (Homo sapiens) (UniProt P31644).
T6 sequence (whole entry): T5 sequence (P31644 whole entry)
Kind of experiment: Binding affinity to GABA-A alpha5 (unknown origin) assessed as reduction in DMCM induced current relative to DMCM.

For experiment [16], the target named is T7, Gamma-aminobutyric acid receptor subunit alpha-3 (Homo sapiens) (UniProt P34903).
T7 sequence (whole entry): T1 sequence (P34903 whole entry)
Kind of experiment: Binding affinity to GABA-A alpha3 (unknown origin) assessed as reduction in DMCM induced current relative to DMCM.

Experiment [17] addresses T8, Gamma-aminobutyric acid receptor subunit alpha-2 (Homo sapiens) (UniProt P47869).
T8 sequence (whole entry): T2 sequence (P47869 whole entry)
As to the kind of experiment: Binding affinity to GABA-A alpha2 (unknown origin) assessed as reduction in DMCM induced current relative to DMCM.

In general, Ki refers to the equilibrium dissociation constant of an inhibitor or competing ligand from its target.

The molecule `CCCNC(=O)c1nnc2c(-c3c(F)cccc3OC)cccc2c1N` [AZD7325] yielded an Occ50 in the experiment with Rattus norvegicus [1] of 1 to 2 µM/g. For the same molecule, the Occ in the experiment with Homo sapiens [2] and with Homo sapiens [3] was 83% throughout.
In the case of `Cc1cc(-c2nncc3c(C(C)(C)C)c(OCc4ncnn4C)nn23)no1`, the results for the Occ50 with Rattus norvegicus [4], in the experiment on Rhesus monkey and in the experiment with Rattus norvegicus [8] were 15 ng/mL, 21 ng/mL and 0.39 mg/kg, respectively. The Occ in the experiment on Homo sapiens [5] amounted to 75%. The values for the Ki in experiment [6], in experiment [7] and in experiment [9] were 0.77 nM, 0.85 nM and 0.83 nM, respectively.
As for `Cc1cc(-c2nnc3c4ccccc4c(OCc4cn(C)nn4)nn23)no1`, the Efficacy in [10] was -0.25; in experiment [15], -0.7; in experiment [16] it was -0.11; in experiment [17], 0.1. The Occ with Homo sapiens [11] is given as 50%. Besides, the Ki is 0.61 nM in [6], 0.58 nM in experiment [7], 0.66 nM in experiment [14] and 0.88 nM in experiment [9]. For the same molecule, the Occ50 in the experiment with Mus musculus was determined as 0.25 mg/kg; in the experiment on Homo sapiens [12] it was 10 ng/mL; with Rattus norvegicus [13], 0.12 mg/kg.
